What all share (format): cell-based
In one experiment the test system is cells of a sample. The experiment is described as follows: LCI-DBP example workflow (FIG. 1A), delta priming compared across treatments. The settings on record: bar graph of FIG. 1A comparing different treatments; cells not specified. The procedure:
An example workflow of live cell imaging dynamic BH3 profiling (LCI-DBP) is depicted in FIG. 1A. As shown, in some embodiments, cells are plated in a well (e.g., a well of a multi-well plate). In some embodiments, the plated cells are contacted with a test agent or a control solution (e.g., a vehicle solution used with the test agent, such as water, buffer, or a solvent), and the test agent is incubated with the cells for a treatment period. In some embodiments, the treated cells are stained with desired markers for imaging (e.g., nuclear and/or mitochondrial markers). In some embodiments, the cells are then treated with a reagent for measuring MOMP, such as a potentiometric dye. In some embodiments, the stained and treated cells are then contacted with a BH3 peptide. Cells treated with BH3 peptide are imaged by live cell imaging to detect the reagent for measuring MOMP. […] In some embodiments, the loss in emission from the potentiometric dye is evaluated for cells treated with the test agent as compared with cells that were not treated with the test agent. In some embodiments, the difference in emission between treated and untreated cells is determined to obtain a parameter referred to herein as delta priming. Image analysis software, or any suitable algorithm known to one skilled in the art, may be used to determine the difference in emission, or it may be determined manually. […]

The subject of experiment [1] is Pancreatic 8902 (Panc8902) cell line. The experiment is described as follows: Live cell imaging dynamic BH3 profiling (LCI-DBP) on Pancreatic 8902 cell line.
Protocol: Cells were imaged by live single-cell imaging at 18 minutes, 40 minutes, 48 minutes, 58 minutes, and 120 minutes following BH3 peptide addition (FIG. 2A). Nuclear staining was detected as a blue emission from Hoechst 33342, and mitochondrial transmembrane potential staining was detected as a green emission from TMRE. […]
The next experiment has as its system MMTV-PyMT-T1 cells. The experiment is described as follows: LCI-DBP on MMTV breast cancer PDX model. The settings on record: MMTV-PyMT-T1 cells treated overnight, then BIM BH3 peptide 10 μM final; imaged 0-120 minutes; compared to undrugged (DMSO) cells; FIG. 3A. The procedure:
The plates with cells were stained with 10 μL per well of LCI-Staining Solution for 20 minutes at 37° C. in a 3307 Steri-Cult Incubator, Class 100 HEP. An EL406™ Combination Microplate Washer Dispenser was then used to aspirate the volume in the wells to 10 μL. The plates with cells were washed three times with LCI-Wash buffer to a final residual volume of 10 μL per well using the EL406™ Combination Microplate Washer Dispenser. The plate was then placed on an ImageXpress® Micro 4 High Content Screening System with the required settings, taking an image every two minutes. After two images, 10 μL of the selected LCI-DBP BIM peptide buffer(s) were added to the wells. The plate was then imaged for at most 2 hours.
As depicted, cells are plated on collagen-coated plates and allowed to incubate for 16-24 hours in the presence of a test agent. […] After all images are acquired, image analysis software is used to quantify differences in TMRE release between drug-treated cells and vehicle-treated cells. […]
Cells were imaged by live single-cell imaging at 0 minutes, 42 minutes, 50 minutes, 66 minutes, and 120 minutes following BH3 peptide addition (FIG. 3A). Nuclear staining was detected as a blue emission from Hoechst 33342, and mitochondrial transmembrane potential staining was detected as a […] emission from TMRE.

Take `CC1(C)CCC(c2ccc(Cl)cc2)=C(CN2CCN(c3ccc(C(=O)NS(=O)(=O)c4ccc(N[C@H](CCN5CCOCC5)CSc5ccccc5)c(S(=O)(=O)C(F)(F)F)c4)cc3)CC2)C1` [Navitoclax]: the delta priming result with cells of a sample was “highest value for delta priming”. In experiment [1] (Panc8902 cells, drug 1 μM overnight, BIM BH3 peptide 1 μM final, monitored over 120 minutes, versus DMSO, FIG. 5C), the “half-time of TMRE loss in single cells (measurement of apoptotic priming)” value is “decrease in the half-time of TMRE loss”.

In the case of `CO[C@H]1/C=C\C=C(/C)C(=O)NC2=CC(=O)C(NCCN(C)C)=C(C[C@@H](C)C[C@H](OC)[C@H](O)[C@@H](C)/C=C(\C)[C@@H]1OC(N)=O)C2=O` [17-DMAG], the “loss in mitochondrial potential, detected as loss in TMRE emission over time” value with MMTV-PyMT-T1 cells is on record as “observable accelerated loss in mitochondrial potential”.

Consider `Cc1c(-c2ccc(N3CCc4cccc(C(=O)Nc5nc6ccccc6s5)c4C3)nc2C(=O)O)cnn1CC12CC3CC(CC(C3)C1)C2` [A1331852], for which the “loss in mitochondrial potential, detected as loss in TMRE emission over time” value in experiment [1] (Panc8902 cells treated overnight, then BIM BH3 peptide 10 μM final, imaged 18-120 minutes, compared to undrugged (DMSO) cells, FIG. 2A) is recorded as “observable accelerated loss in mitochondrial potential”.

These data come from US12529692B2, “Live cell imaging dynamic BH3 profiling” (Dana-Farber Cancer Institute, Inc., priority 2019, dated 2026).
